According to the supplement of paper PMC8633005:

Assays:
Assay in all cases: drug sensitivity score (DSS) (DSS (unitless, 0-50 scale)); higher = more sensitive (stronger viability inhibition); extreme values may be limits of the assay
Conditions in all cases: 72 h; culture: 2D
[1] = tested on: SK-MEL-2
Method in brief: (§1)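 Patient-derived melanoma cultures (1000–1500 cells per well) and melanoma cell lines were grown in 2D in 384-well plates holding a 527-compound oncology library. Each compound was dissolved in DMSO or water and tested at five concentrations spanning a 10,000-fold range. After 72 h at 37 °C, viability was read by CellTiter-Glo luminescence. A drug sensitivity score, a modified area-under-curve measure, was derived from dose-response curves fitted in the in-house Breeze software.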

[2] = tested on: WM852
Method in brief: as §1

[3] = tested on: WM165
Method in brief: as §1

[4] = tested on: SK-MEL-28
Method in brief: as §1

[5] = tested on: FM-MEL-6
Method in brief: as §1

[6] = tested on: FM-MEL-3
Method in brief: as §1

[7] = tested on: Bowes
Method in brief: as §1

[8] = tested on: FM-MEL-2
Method in brief: as §1

Row | Compound | drug sensitivity score [1] | drug sensitivity score [2] | drug sensitivity score [3] | drug sensitivity score [4] | drug sensitivity score [5] | drug sensitivity score [6] | drug sensitivity score [7] | drug sensitivity score [8]
1 | FC(F)c1nc2ccccc2n1-c1nc(N2CCOCC2)nc(N2CCOCC2)n1 [ZSTK474] | 4.6 | 7 | 9 | 12.2 | 8.7 | 7.2 | 7 | 10.8
2 | CNc1nc(-c2ccc3c(N)n[nH]c3c2)cc(N2C[C@@H](C(=O)NC3CCCCC3)CC[C@H]2C)n1 | 0 | 0 | 0.4 | 1.5 | 0 | 0 | 0 | 1.8
3 | CN(C)CCOc1ccc(/C(=C(/CCCl)c2ccccc2)c2ccccc2)cc1 [Toremifene] | 1.6 | 3.4 | 4.3 | 4.4 | 6 | 7.8 | 1.1 | 5.8
4 | CC(C)(O)CC(=O)NCCn1ccc2ncnc(Nc3ccc(Oc4cccc(C(F)(F)F)c4)c(Cl)c3)c21 [TAK-285] | 0 | 0 | 0 | 0 | 0 | 0 | 1.4 | 0
5 | Nc1ncnc2c1c(COc1cccc(Cl)c1)nn2C1CCOCC1 | 0 | 0.8 | 0 | 0 | 0.7 | 0 | 0 | 0.2
6 | C[C@]12CC[C@@H]3c4ccc(O)cc4C[C@@H](CCCCCCCCC[S+]([O-])CCCC(F)(F)C(F)(F)F)[C@H]3[C@@H]1CC[C@@H]2O (stereo partly drawn) [Fulvestrant] | 0 | 0 | 0 | 0 | 0 | 0 | 0 | 0
7 | COCCOc1cnc2ccn([C@H](C)c3nnc4c(F)cc(-c5cnn(C)c5)cn34)c(=O)c2c1 [AMG-337] | 0 | 0 | 0 | 0 | 0 | 0 | 0 | 0
8 | O=C(CCCCCCC(=O)Nc1ccc([C@H]2O[C@@H](CSc3nc(-c4ccccc4)c(-c4ccccc4)o3)C[C@@H](c3ccc(CO)cc3)O2)cc1)NO [Tubacin] | 0.8 | 3.9 | 4.7 | 0 | 0.2 | 0 | 4.9 | 0.9
9 | Nc1cccc2c1CN(C1CCC(=O)NC1=O)C2=O (stereo not drawn) [Lenalidomide] | 0 | 0 | 0 | 0 | 0 | 0 | 0 | 0
10 | CC(C)(C)c1cnc(CSc2cnc(NC(=O)C3CCNCC3)s2)o1 [SNS-032] | 19.2 | 18.2 | 25 | 18.9 | 26.1 | 19.2 | 31.8 | 12.7
11 | O=C(CCNC(=O)c1ccc(OC(F)(F)F)cc1)N[C@@H]1CCCc2ccccc21 [ML390] | 0 | 0 | 6.8 | 2.8 | 1.2 | 6.7 | 0 | 0
12 | CS(=O)(=O)N1CCN(Cc2cc3nc(-c4cccc5[nH]ncc45)nc(N4CCOCC4)c3s2)CC1 [Pictilisib] | 3.2 | 6.5 | 8.4 | 9.6 | 7.4 | 8.8 | 8.4 | 12.7
13 | COc1cc(C)c(/C=C/C(C)=C/C=C/C(C)=C/C(=O)O)c(C)c1C [Acitretin] | 0 | 0 | 0 | 0 | 1.6 | 1.3 | 2.6 | 0
14 | O=c1sn(-c2cccc3ccccc23)c(=O)n1Cc1ccccc1 [Tideglusib] | 0 | 0 | 0 | 0 | 0 | 0 | 0 | 0
15 | CCC(C)(C)C(=O)O[C@H]1C[C@@H](C)C=C2C=C[C@H](C)[C@H](CC[C@@H]3C[C@@H](O)CC(=O)O3)[C@H]21 [Simvastatin] | 0.1 | 1 | 4.5 | 0 | 0.3 | 1 | 2.8 | 0
16 | CCN(c1cc(-c2ccc(CN3CCOCC3)cc2)cc(C(=O)NCc2c(C)cc(C)[nH]c2=O)c1C)C1CCOCC1 [Tazemetostat] | 0 | 0 | 0 | 0 | 1.3 | 0 | 1.5 | 0
17 | COC(=O)C[C@](O)(CCCC(C)(C)O)C(=O)O[C@@H]1C(OC)=C[C@]23CCCN2CCc2cc4c(cc2[C@H]13)OCO4 [Omacetaxine] | 18.2 | 26.1 | 27.2 | 22.4 | 28.5 | 25.9 | 29.1 | 20.4
18 | CC(C)n1cnc2c(NCCc3ccc(O)cc3)nc(-c3csc4ccccc34)nc21 [StemRegenin 1] | 0 | 1.3 | 2.5 | 0 | 3.6 | 3.4 | 1.1 | 1.5
19 | CCCCCCCCCCCCCCCCOP(=O)([O-])OCC[N+](C)(C)C [Miltefosine] | 2.1 | 2 | 6.2 | 1.8 | 1.2 | 6 | 5.9 | 0.4
20 | CO[C@H]1C[C@@H]2CC[C@@H](C)[C@@](O)(O2)C(=O)C(=O)N2CCCC[C@H]2C(=O)O[C@H]([C@H](C)C[C@@H]2CC[C@@H](O)[C@H](OC)C2)CC(=O)[C@H](C)/C=C(\C)[C@@H](O)[C@@H](OC)C(=O)[C@H](C)C[C@H](C)/C=C/C=C/C=C/1C [Sirolimus] | 0 | 0 | 4.5 | 0.9 | 1.2 | 0.2 | 0 | 0.2
21 | N.N.[Cl][Pt][Cl] [Cisplatin] | 4.4 | 5.1 | 19.2 | 9.2 | 4.5 | 5.8 | 5.6 | 4.2

Row | Compound | drug sensitivity score [1] | drug sensitivity score [2] | drug sensitivity score [3] | drug sensitivity score [4] | drug sensitivity score [5] | drug sensitivity score [6] | drug sensitivity score [7] | drug sensitivity score [8]
22 | CCN1CCN(Cc2ccc(Nc3ncc(F)c(-c4cc(F)c5nc(C)n(C(C)C)c5c4)n3)nc2)CC1 [Abemaciclib] | 0 | 5.3 | 6.6 | 8.7 | 0 | 7.2 | 9.6 | 4
23 | CC(O)c1cc(C(=O)N[C@@H](C)Cn2ccc(-c3ccc(C#N)c(Cl)c3)n2)n[nH]1 (stereo partly drawn) [ODM-201] | 0 | 0.2 | 0 | 0 | 1.1 | 2.8 | 1.3 | 0
24 | S=c1[nH]cnc2nc[nH]c12 [Mercaptopurine] | 0 | 5.5 | 7.3 | 3.8 | 0.5 | 0 | 1.9 | 0.1
25 | O=C(O)CC1CC(c2ccccc2)=NO1 (stereo not drawn) [VGX-1027] | 0 | 0 | 0 | 0 | 0 | 0 | 0 | 0
26 | CNC(=O)c1ccccc1Nc1cc(Nc2ccc(N3CCOCC3)cc2OC)ncc1C(F)(F)F [VS-4718] | 6.3 | 6.7 | 7.8 | 4.5 | 7.2 | 12.5 | 3 | 9.2
27 | O=C(Nc1cnn2ccc(N3CCC[C@@H]3c3cc(F)ccc3F)nc12)N1CC[C@H](O)C1 [Larotrectinib] | 0 | 0 | 0 | 0 | 0 | 0 | 0 | 0
28 | Cc1ccc(NC(=O)c2ccc(CN3CC[C@H](N(C)C)C3)c(C(F)(F)F)c2)cc1Nc1nccc(-c2cncnc2)n1 [Bafetinib] | 0 | 0 | 2.9 | 1.3 | 0 | 1.7 | 0 | 2.3
29 | Cc1cccc(-c2nn3c(c2-c2ccnc4ccc(C(N)=O)cc24)CCC3)n1 [Galunisertib] | 0 | 0 | 0 | 0 | 0 | 0 | 0 | 0
30 | CN(C)C(=O)c1cc2cnc(Nc3ccc(N4CCNCC4)cn3)nc2n1C1CCCC1 [Ribociclib] | 0 | 0.7 | 2.8 | 5.4 | 1.6 | 2.3 | 0 | 4.3
31 | COc1cc(OC2CCN(C)CC2)ccc1Nc1ncc2c(n1)n(C1CCCC1)c(=O)n2C [AZ 3146] | 1.3 | 3.2 | 5.5 | 1.7 | 3 | 2.2 | 3.3 | 3.3
32 | COc1cc(C(=O)O)ccc1NC(=O)[C@@H]1N[C@@H](CC(C)(C)C)[C@](C#N)(c2ccc(Cl)cc2F)[C@H]1c1cccc(Cl)c1F [Idasanutlin] | 0 | 0 | 22.7 | 0 | 0.3 | 19.7 | 3.4 | 3.7
33 | CC(C)(C)c1cc(NC(=O)Nc2ccc(Oc3ccnc4[nH]c(=O)cnc34)cc2F)n(-c2ccccc2)n1 | 4.5 | 5.3 | 12.6 | 10.3 | 4.2 | 14.5 | 10.7 | 11.6
34 | CC[C@]12C=CCN3CC[C@@]4(c5cc([C@@]6(C(=O)OC)C[C@@H]7C[C@@H](C(C)(F)F)CN(Cc8c6[nH]c6ccccc86)C7)c(OC)cc5N(C)[C@H]4[C@@](O)(C(=O)OC)[C@@H]1OC(C)=O)[C@@H]32 [Vinflunine] | 2.7 | 3.5 | 4.6 | 3.5 | 3.8 | 3.2 | 3.6 | 1
35 | Nc1cc(C(F)(F)F)c(-c2cc(N3CCOCC3)nc(N3CCOCC3)n2)cn1 [Buparlisib] | 3.3 | 6 | 6.6 | 6.5 | 6 | 6.7 | 5.1 | 6.5
36 | CC[C@@]1(O)C(=O)OCc2c1cc1n(c2=O)Cc2cc3c(CN(C)C)c(O)ccc3nc2-1 [Topotecan] | 8.2 | 1.4 | 25.3 | 8.1 | 8.1 | 11 | 6.8 | 6.1
37 | NS(=O)(=O)OC[C@@H]1C[C@@H](n2ccc3c(N[C@H]4CCc5ccccc54)ncnc32)C[C@@H]1O [Pevonedistat] | 11.7 | 11.7 | 20 | 7 | 7.8 | 12.4 | 10.9 | 6.2
38 | Cc1cnc(-c2ccccc2C(C)C)nc1NCc1ccc(-n2ccnn2)cc1 [ML323] | 0 | 0.9 | 1.1 | 0 | 0 | 1.2 | 0.6 | 0
39 | C[C@@H]1CN(C(=O)c2ccc(NC(=O)c3cc(O[C@H](C)c4c(Cl)ccc(F)c4Cl)c(N)nn3)cc2)C[C@H](C)N1 [Ensartinib] | 0 | 0.4 | 0.7 | 0 | 1.5 | 2.6 | 1.6 | 0.5
40 | CO[C@@H](C)Cn1c(=O)n(C)c2cnc3ccc(-c4cncc(C(C)(C)O)c4)cc3c21 | 7.3 | 7.5 | 12 | 7.9 | 9.3 | 8.9 | 10.4 | 9.6
41 | Cc1cnc(Nc2ccc(OCCN3CCCC3)cc2)nc1Nc1cccc(S(=O)(=O)NC(C)(C)C)c1 [Fedratinib] | 4.5 | 6.8 | 9.1 | 3 | 3.1 | 6.7 | 10.9 | 3.6
